According to patent US20220356163A1, “SMALL MOLECULE INHIBITORS OF Id PROTEINS” (MEMORIAL SLOAN KETTERING CANCER CENTER, priority 2019, published 2022):

Experiments:
SK-BR-3 = assay: MTT assay, SK-BR-3; assay type: cell-based; details: Homo sapiens, 24 h, SK-BR-3, HER-2 +ve cell line, read-out: IC50 value after 24 hours of treatment
Text: The 4T1 murine mammary tumor cell line and nine breast cancer cell lines representing the major breast cancer subtypes (ER+, HER2+, and TNBC) including MDA-MB-157, MDA-MB-436, MDA-MB-231, MDA-MB-453, MDA-MB-361, BT-474, SK-BR-3, MCF-7 and T47-D will be grown in RPMI or DMEM (Dulbecco's Modified Eagle Medium) media supplemented with 10% FBS (fetal bovine serum), 1% penicillin-streptomycin and 1% L-Glutamine. Patient derived xenograft cell lines BR7, BR11, and IBT will be established directly from breast cancer bone metastases specimens surgically resected from patients with informed consent. BR7 and BR11 specimens will be obtained from ER positive (HER2 negative and PR negative) metastatic breast cancer patients, while the IBT specimen will be obtained from a metastatic, triple negative breast cancer patient. Fresh tumor tissues will be quickly washed with ice cold PBS and minced into about 1-3 mm pieces in MEM medium (without FBS) using sterile razor blades. […] The cells will be treated with either 100 μM DMSO, AGX51, or a compound of the present technology such as AGX-A. The cell morphology and growth will be monitored daily for 1 week by microscopy for changes in morphology or cell death. […] Absorbance will then measured at 570 nm using a plate reader (Synergy 2, BioTek). […]

Id1 = target: T1, Id1 (Mus musculus, UniProt P20067); assay: Electrophoretic mobility shift assay (EMSA): ability of Id1 to antagonize E47 binding to DNA; assay type: biochemical; details: comparison between compounds
T1 construct: in the presence or absence of purified full-length Id1; made in house; host or cells: bacteria (Id1: Rosetta 2 (DE3))
T1 sequence (P20067 1-148 isoform P20067-2): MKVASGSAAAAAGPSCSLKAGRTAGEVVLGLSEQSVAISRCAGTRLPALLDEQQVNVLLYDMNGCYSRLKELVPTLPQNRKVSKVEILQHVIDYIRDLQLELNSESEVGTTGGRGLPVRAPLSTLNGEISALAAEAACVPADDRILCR
Description: Electrophoretic mobility shift assays. To test the activity of compounds identified in the in silico screen, full-length E47 was purified from bacteria and mixed with a P^32 labeled E-box sequence derived from the muscle creatine kinase (MCK) enhancer, BSA, DTT, poly dI-dC, salmon sperm, and HeLa nuclear extract, in the presence or absence of purified full-length Id1. Increasing concentrations of the various test compounds dissolved in DMSO or DMSO alone were added to the reaction mixes for 30 minutes, resolved on a 5% non-denaturing polyacrylamide gel, and autoradiographed. Electrophoretic mobility shift assays (EMSAs) were carried out on whole cell lysates from AGX51-treated cells and the EMSA was performed as described previously (Tournay and Benezra, Mol Cell Biol, 16: 2418-30 (1996)).
Pesce and Benezra, Mol. Cell. Biol., 13, 7874-7880 (1993). An in silico screen of 2,234,000 compounds for crevice binding was performed, yielding 3,000 hits that were pared for drug-like properties. 364 candidates emerged and were tested for their capacity to inhibit the ability of Id1 to antagonize E47 binding to DNA by EMSAs as previously described (Benezra, 1994). […] This anti-Id1 activity was most likely due to the perturbation of the Id1-E47 interaction but other explanations, such as the binding of an Id1-E47 complex to DNA in the presence of compound, are possible. […]

Compound: CCC(=O)N(CCC(c1ccc2c(c1)OCO2)c1ccccc1OC)Cc1ccccc1 (racemic) [AGX51, N-(3-(benzo[d][1,3]dioxol-5-yl)-3-(2-methoxyphenyl)propyl)-N-benzylpropionamide]
- IC50 (SK-BR-3): 36.6 µM
- relative potency in EMSA (Id1): more potent than B
